Test [1] concerns the target p70S6K (Homo sapiens, UniProt P23443). Briefly: Biochemical inhibition profile, p70S6K. Particulars: read-out: p70S6K percent inhibition at 20 μM.
Test [2] deals with pERK T202Y204 in HUVEC (with BSA). Kind of test: Cell-based target inhibition assay, HUVEC, VEGF, pERK with BSA. Set-up: species or system human. The conditions noted are these: Homo sapiens, read-out: Cell-Based Target Inhibition Assays IC50, pERK T202Y204 (with BSA).
The test system of test [3] is MV4-11. Kind of test: cells. It counts as cell-based. The conditions noted are these: Homo sapiens, MV4-11, read-out: Cell-Based Antiproliferation Assay IC50.
In test [4] the target is EPHA8 (Homo sapiens, UniProt P29322). Briefly: Biochemical inhibition profile, EPHA8.
EPHA8, sequence (P29322 28-1005): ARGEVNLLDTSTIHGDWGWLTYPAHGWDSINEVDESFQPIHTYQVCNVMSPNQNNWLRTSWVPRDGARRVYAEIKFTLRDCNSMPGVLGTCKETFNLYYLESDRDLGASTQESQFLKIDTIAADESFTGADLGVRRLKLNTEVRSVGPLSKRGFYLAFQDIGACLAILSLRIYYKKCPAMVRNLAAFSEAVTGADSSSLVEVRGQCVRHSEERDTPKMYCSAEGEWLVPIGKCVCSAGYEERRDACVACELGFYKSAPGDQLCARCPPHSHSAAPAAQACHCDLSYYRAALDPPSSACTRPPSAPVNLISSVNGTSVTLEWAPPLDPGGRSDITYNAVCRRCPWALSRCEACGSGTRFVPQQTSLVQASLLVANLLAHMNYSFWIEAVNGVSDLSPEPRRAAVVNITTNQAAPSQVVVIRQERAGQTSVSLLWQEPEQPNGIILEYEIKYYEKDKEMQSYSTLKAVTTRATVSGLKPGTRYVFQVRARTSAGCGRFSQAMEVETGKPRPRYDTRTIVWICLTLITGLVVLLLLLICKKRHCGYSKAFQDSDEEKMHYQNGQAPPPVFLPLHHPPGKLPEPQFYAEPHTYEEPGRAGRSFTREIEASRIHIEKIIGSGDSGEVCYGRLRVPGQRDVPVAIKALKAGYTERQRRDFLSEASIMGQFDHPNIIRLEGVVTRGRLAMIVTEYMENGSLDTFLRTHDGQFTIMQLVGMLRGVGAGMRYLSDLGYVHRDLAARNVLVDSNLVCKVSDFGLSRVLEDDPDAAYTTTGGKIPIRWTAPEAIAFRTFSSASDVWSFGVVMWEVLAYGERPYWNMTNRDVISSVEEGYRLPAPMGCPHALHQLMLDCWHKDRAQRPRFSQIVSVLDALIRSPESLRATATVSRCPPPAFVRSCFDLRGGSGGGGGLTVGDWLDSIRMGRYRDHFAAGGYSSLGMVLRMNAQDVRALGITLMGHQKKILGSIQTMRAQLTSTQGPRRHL
For test [5], the system named is RAF. Briefly: Biochemical inhibition profile, RAF. Further details: species or system Human. The conditions noted are these: read-out: Biochemical Inhibition Profile IC50, RAF.
For test [6], the system named is pERK T202Y204 in HUVEC. Briefly: Cell-based target inhibition assay, HUVEC, VEGF, pERK. The conditions noted are these: Homo sapiens, read-out: Cell-Based Target Inhibition Assays IC50, pERK T202Y204. Set-up: species or system human.
The subject of test [7] is pFLT3. The conditions noted are these: Western blotting; 200 mg; 10/13 patients; cited from earlier work.

As usually defined, the inhibition is the drop in the measured response relative to a control, in per cent.

p70S6K, sequence (P23443 whole entry): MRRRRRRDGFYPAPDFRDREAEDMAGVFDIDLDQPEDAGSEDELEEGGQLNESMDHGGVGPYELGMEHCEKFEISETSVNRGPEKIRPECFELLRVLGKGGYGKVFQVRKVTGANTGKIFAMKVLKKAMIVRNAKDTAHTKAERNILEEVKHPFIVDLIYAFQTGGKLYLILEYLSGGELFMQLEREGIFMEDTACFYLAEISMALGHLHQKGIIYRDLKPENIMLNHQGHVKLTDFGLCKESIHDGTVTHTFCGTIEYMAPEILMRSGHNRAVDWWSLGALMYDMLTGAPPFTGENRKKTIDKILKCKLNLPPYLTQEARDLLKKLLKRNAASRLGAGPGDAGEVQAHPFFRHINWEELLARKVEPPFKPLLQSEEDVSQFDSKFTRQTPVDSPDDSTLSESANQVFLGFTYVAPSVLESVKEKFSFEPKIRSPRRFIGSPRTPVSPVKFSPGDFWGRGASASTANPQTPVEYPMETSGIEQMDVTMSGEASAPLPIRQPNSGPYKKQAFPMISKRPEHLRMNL

With `CNC(=O)c1cc(Oc2ccc(NC(=O)Nc3ccc(Cl)c(C(F)(F)F)c3)cc2)ccn1` [Sorafenib], in test [1], the inhibition at 20 µM was found to be 75.6%. Further, the results for the IC50 in test [2] and in test [3] were 38 nM and 11.7 nM, respectively.
Consider `CCN(CC)CCNC(=O)c1c(C)[nH]c(/C=C2\C(=O)Nc3ccc(F)cc32)c1C` [Sunitinib, reference compound], for which the IC50 is above 20000 nM in test [4], above 20000 nM in test [5], 28.7 nM in test [6] and 19.6 nM in test [3]. The inhibition at 20 µM in test [1] was determined as 92.3%. Besides, in test [7], the “Patients with reduction of pFLT3” value is given as 77%.

Values taken from paper PMC3101112 (Cancer Management and Research, 2011).
